What was measured:
Format in all cases: cell-based
hBmal1 gene [1] = experiment: Clock gene expression regulation, hBmal1 expressed amount by RT-PCR in cultured human skin fibroblast cells; conditions: for Relative expressed amount of hBmal1 (16 hours): 50 ppm test substance, 16 hours after addition, relative to RPLP0, control 0.48, *p < 0.05; for expressed amount of hBmal1 gene in comparison with the control: 50 ppm, 16 hours, Dunnett's test one-sided 5%
Protocol: (§1) The results above confirm that in an evaluation system using cultured human skin fibroblast cells, clock genes acquire a circadian rhythm when stimulated with cortisol. Because it is desirable to evaluate during a time period when the expressed amount is high, the clock gene expression regulation effects of the test substances were evaluated based on the expressed amount of the clock gene 16 hours after stimulation in the case of hBmal1 and 2 hours after stimulation in the case of hPer1.
(§2) Fibroblasts cells from normal human skin (Cell Application, Inc.) were seeded by methods similar to those used above, each chemical was added on the 6th day of culture to a concentration of 50 ppm, and the cells were sampled after 2 hours and after 16 hours. The same amount of ethanol was added instead of the test substance as a control. RNA was extracted from the cells with a commercial RNA extraction kit, and the expressed amounts of the hBmal1 and hPer1 genes were measured by RT-PCR using a commercial PCR primer (Perfect Real Time Primer, Takara Bio). Similarly, the expressed amount of the housekeeping gene RPLP0 was assayed and used as an internal standard to calculate the expressed amounts of the target genes relative to the expressed amount of RPLP0. Dunnett's multiple comparison test was performed on the obtained values, and an effect was recognized if there was a significant difference with a one-sided 5% risk factor in comparison with the control.

hPer1 gene [2] = experiment: Clock gene expression regulation, hPer1 expressed amount by RT-PCR in cultured human skin fibroblast cells; conditions: for Relative expressed amount of hPer1 (2 hours): 50 ppm test substance, 2 hours after addition, relative to RPLP0, control 0.24, *p < 0.05; for expressed amount of hPer1 gene in comparison with the control: 50 ppm, 2 hours, Dunnett's test one-sided 5%
Protocol: as §1, §2

hBmal1 gene [3] = experiment: Induction of circadian rhythm of hBmal1 expression with cortisol in cultured human skin fibroblast cells; conditions: 50 ng/ml cortisol, 2 hours of treatment, cells sampled over time (FIG. 2)
Protocol: (§3) It was confirmed that a circadian rhythm of clock gene expression can be induced in a system using cultured human skin fibroblast cells.
(§4) As the cultured human fibroblast cells, fibroblast cells from normal human skin were purchased (Cell Application, Inc.) and used in the experiments. They were seeded on DMEM medium with 10% FBS, 20 mM HEPES, Glutamax and an antibacterial agent added thereto, and cultured at 37° C. in 5% CO2. On the 6th day of culture, 50 ng/ml of cortisol was added, and after 2 hours of treatment the cells were sampled over time. RNA was extracted from the cells with a commercial RNA extraction kit, and the expressed amounts of the hBmal1 and hPer1 genes were measured by RT-PCR using a commercial PCR primer (Perfect Real Time Primer, Takara Bio). Similarly, the expressed amount of the housekeeping gene RPLP0 was assayed and used as an internal standard to calculate the expressed amounts of the target genes relative to the expressed amount of RPLP0.
(§5) In the body, cortisol and other glucocorticoids are involved in regulating the biological clock in peripheral tissue and the like, and it is thought that blood concentrations of cortisol rise at the time of awakening in the morning, resetting the biological clock. […]

hPer1 gene [4] = experiment: Induction of circadian rhythm of hPer1 expression with cortisol in cultured human skin fibroblast cells; conditions: 50 ng/ml cortisol, 2 hours of treatment, cells sampled over time (FIG. 2)
Protocol: as §3, §4, §5

Compound | Relative expressed amount of hBmal1 (16 hours) (hBmal1 gene [1]) | expressed amount of hBmal1 gene in comparison with the control (hBmal1 gene [1]) | Relative expressed amount of hPer1 (2 hours) (hPer1 gene [2]) | expressed amount of hPer1 gene in comparison with the control (hPer1 gene [2]) | cycle of circadian rhythm of hBmal1 expression as a result of cortisol stimulation (hBmal1 gene [3]) | cycle of circadian rhythm of hPer1 expression as a result of cortisol stimulation (hPer1 gene [4])
C=C1CC[C@H]2O[C@]2(C)CC[C@@H]2[C@@H]1CC2(C)C [Caryophyllene oxide, (1R,4R,6R,10S)-4,12,12-trimethyl-9-methylene-5-oxatricyclo[8.2.0.04.6]dodecane] | 3.50* | significantly increased | 2.29* | significantly increased |  | 
COC(=O)c1ccccc1N [Methyl 2-aminobenzoate] | 1.19* | significantly increased | 0.64* | significantly increased |  | 
CNc1ccccc1C(=O)OC [Methyl 2-methylaminobenzoate] | 2.52* | significantly increased | 0.64* | significantly increased |  | 
COC(=O)c1ccccc1C [Methyl 2-methylbenzoate, methyl 2-methylbenzoate] | 1.01* | significantly increased | 0.44* | significantly increased |  | 
C[C@]12CCC(=O)C=C1CC[C@@H]1[C@@H]2[C@@H](O)C[C@@]2(C)[C@H]1CC[C@]2(O)C(=O)CO [cortisol] |  |  |  |  | roughly 24 hour | roughly 24 hour

Source: patent US20140057979A1, “Expression Modulator For Clock Gene” (Shiseido Company, Ltd., priority 2012, published 2014)
